According to patent US6583248B1, “Polymerizable cyclodextrin derivatives” (American Dental Association Health Foundation, priority 1997, dated 2003):

Test: Qualitative solubility tests (polarizing microscope, drop of liquid under cover glass)
Assay type: physicochemical
Excerpt: Qualitative solubility tests. A few granules of the βCD or MβCD were placed on a microscope slide, covered with a cover glass, and examined with a polarizing microscope while a drop of liquid was placed to flow under the cover glass. These liquids comprised solvents having a wide range of solubility parameters and a number of monomers that might be of interest in dental or industrial formulations.

| Compound | subjective solubility in 1,3-glycerol dimethacrylate (1,3-glycerol dimethacrylate) | subjective solubility in benzyl methacrylate (benzyl methacrylate) | subjective solubility in hydroxyethyl methacrylate (hydroxyethyl methacrylate) | subjective solubility in methanol | subjective solubility in triethyleneglycol dimethacrylate (triethyleneglycol dimethacrylate) | subjective solubility in undiluted BIS-GMA (undiluted BIS-GMA) | subjective solubility in water | subjective solubility in ethylene glycol dimethyl ether (ethylene glycol dimethyl ether) |
| --- | --- | --- | --- | --- | --- | --- | --- | --- |
| fully methacrylated beta-cyclodextrin [MβCD] | slowly soluble | promptly soluble | promptly soluble | very rapidly soluble (miscible) | slowly soluble | very slowly soluble | practically insoluble |  |
| OC[C@H]1O[C@@H]2O[C@H]3[C@H](O)[C@@H](O)[C@@H](O[C@H]4[C@H](O)[C@@H](O)[C@@H](O[C@H]5[C@H](O)[C@@H](O)[C@@H](O[C@H]6[C@H](O)[C@@H](O)[C@@H](O[C@H]7[C@H](O)[C@@H](O)[C@@H](O[C@H]8[C@H](O)[C@@H](O)[C@@H](O[C@H]1[C@H](O)[C@H]2O)O[C@@H]8CO)O[C@@H]7CO)O[C@@H]6CO)O[C@@H]5CO)O[C@@H]4CO)O[C@@H]3CO [βCD, beta-cyclodextrin, reference compound] |  |  |  | practically insoluble |  |  | very slowly and only slightly soluble | practically insoluble |
